This assay has as its target EGFR kinase domain (Homo sapiens, UniProt P00533). Description: SPR. The format is binding.

This is an account of results in paper doi:10.1101/2025.04.14.25325787v4 (medrxiv, 2025).

Each structure is given as a SMILES string. pKd: −log10 of the molar value.

Chain of EGFR kinase domain (P00533 704-1016): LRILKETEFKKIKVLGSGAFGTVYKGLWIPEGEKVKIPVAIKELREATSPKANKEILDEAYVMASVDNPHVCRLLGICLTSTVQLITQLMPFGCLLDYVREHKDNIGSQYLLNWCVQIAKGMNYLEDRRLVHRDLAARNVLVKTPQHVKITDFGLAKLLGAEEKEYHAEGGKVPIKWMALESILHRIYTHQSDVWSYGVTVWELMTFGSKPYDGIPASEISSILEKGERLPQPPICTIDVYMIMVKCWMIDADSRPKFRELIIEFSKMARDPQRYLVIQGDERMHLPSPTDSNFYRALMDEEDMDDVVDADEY

As for `COc1ccc(CCn2c(=O)c3cc4c(cc3c3ccccc32)OCO4)cc1` [Z5, ZYH005], the pKd was 4.71.
